As usually defined, the IC50 is the concentration at which inhibition is half-maximal. A low value points to greater potency in that assay.

Structures are written as SMILES. Counter-ions that a name gives are not always drawn.

The target of the experiment is human PDE4B1 (Homo sapiens (Human), UniProt Q07343). As to the kind of experiment: TR-FRET assay using the LANCE Ultra cAMP kit to determine the activity of hPDE4B1. In kind it is biochemical. Particulars: IC50 inhibition of PDE4B, mean. From the text:
TR-FRET Assay Using the LANCE® Ultra cAMP Kit to Determine the Activity of hPDE4B1
The effects of the compounds on the activity of the human PDE4B1 was quantified by measuring the production of 5′AMP from cAMP using a human recombinant enzyme expressed in Sf9 cells and the LANCE® Ultra cAMP kit, a TR-FRET detection method from PerkinElmer. The human PDE4B1 enzyme was purchased from SignalChem Lifesciences (Catalog# P92-31BG, Lot# H296-2).
The test compound, reference compound or water (control) was mixed with the enzyme (0.96 U) in a reaction buffer containing 50 mM Tris-HCl, 50 mM MgCl2 and 5 mM DTT (pH 8.5). Thereafter, the reaction was initiated by addition of 500 nM cAMP (substrate) and the mixture was incubated for 30 minutes at room temperature. For control basal measurements, the enzyme was omitted from the reaction mixture. After 30 minutes, the reaction was stopped and diluted by a factor of 100 with the reaction buffer supplemented with 500 μM IBMX. The fluorescence donor (europium chelate-labeled cAMP) and the fluorescence acceptor (anti-cAMP antibody labeled with the ULight™ dye) were then added together with 500 μM IBMX to a 10 μl aliquot. After 60 minutes, the fluorescence transfer corresponding to the amount of residual cAMP was measured at λex=337 nm, λem=620 nm and λem=665 nm using a microplate reader (PHERAstar, BMG). The enzyme activity was determined by dividing the signal measured at 665 nm by that measured at 620 nm (ratio) multiplied by 10000. The results were expressed as percent inhibition of the control enzyme activity. IC50 values (IC50=concentration causing a half-maximal inhibition of control specific activity) were derived from dose response measurements with ten different concentrations (n=3; N=1-3).
Several compounds according to the invention are tested with above mentioned assay.

Sequence of human PDE4B1 (Q07343 whole entry): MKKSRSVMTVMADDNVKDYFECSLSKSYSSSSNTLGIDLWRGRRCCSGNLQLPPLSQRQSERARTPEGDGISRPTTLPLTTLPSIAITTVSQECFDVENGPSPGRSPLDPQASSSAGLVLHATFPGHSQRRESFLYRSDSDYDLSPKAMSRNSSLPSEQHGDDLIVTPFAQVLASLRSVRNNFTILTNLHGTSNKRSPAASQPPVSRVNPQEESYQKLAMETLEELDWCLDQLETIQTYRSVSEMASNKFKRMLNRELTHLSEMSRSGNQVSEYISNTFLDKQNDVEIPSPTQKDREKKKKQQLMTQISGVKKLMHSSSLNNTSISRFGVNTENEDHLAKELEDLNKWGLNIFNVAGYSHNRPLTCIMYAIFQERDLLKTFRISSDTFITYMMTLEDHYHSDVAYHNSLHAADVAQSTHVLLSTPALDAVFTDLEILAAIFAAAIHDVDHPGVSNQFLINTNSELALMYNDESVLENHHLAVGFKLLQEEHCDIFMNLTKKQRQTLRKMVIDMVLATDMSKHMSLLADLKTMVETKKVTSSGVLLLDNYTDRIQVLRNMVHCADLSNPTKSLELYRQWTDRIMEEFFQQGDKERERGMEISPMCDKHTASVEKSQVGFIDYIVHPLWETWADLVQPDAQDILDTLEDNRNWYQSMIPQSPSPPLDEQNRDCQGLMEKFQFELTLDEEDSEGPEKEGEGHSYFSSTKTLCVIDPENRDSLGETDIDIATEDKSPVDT

As for `CN(CCO)C(=O)c1ccc2c(c1)N(c1ncc(-c3cc(N4CCCC4)ccc3F)cn1)CC21CC1` [Compound 359, 1-[5-(2-Fluoro-5-pyrrolidin-1-yl-phenyl)-pyrimidin-2-yl]-N-(2-hydroxy-ethyl)-N-methyl-spiro[1,2-dihydro-indole-3,1′-cyclopropane]-6-carboxylic acid amide], the IC50 is below 0.1 µM.

Consider `CN(CCO)C(=O)c1ccc2c(c1)N(c1ncc(-c3cccc(F)n3)cn1)CC21CC1` [Compound 230, 1-[5-(6-Fluoro-pyridin-2-yl)-pyrimidin-2-yl]-N-(2-hydroxy-ethyl)-N-methyl-spiro[1,2-dihydro-indole-3,1′-cyclopropane]-6-carboxylic acid amide], for which the IC50 is below 0.1 µM.

As for `CN(CC(N)=O)C(=O)c1ccc2c(c1)N(c1ncc(-c3ccccc3F)cn1)CC21CC1` [Compound 256, N-(Carbamoyl-methyl)-1-[5-(2-fluorophenyl)-pyrimidin-2-yl]-N-methyl-spiro[1,2-dihydro-indole-3,1′-cyclopropane]-6-carboxylic acid amide], the IC50 is below 0.1 µM.

`O=C(c1ccc2c(c1)N(c1ncc(-c3ccccn3)cn1)CC21CC1)N1C[C@@H]2C[C@H]1CN2` [Compound 304, [(1S,4S)-2,5-Diazabicyclo[2.2.1]heptan-2-yl]-[1-(5-pyridin-2-yl-pyrimidin-2-yl)-spiro[1,2-dihydro-indole-3,1′-cyclopropane]-6-yl]-methanone]: the IC50 is below 0.1 µM.

As for `CN(CC(N)=O)C(=O)c1ccc2c(c1)N(c1ncc(-c3cc(C4CC4)ccn3)cn1)CC21CC1` [Compound 337, N-(Carbamoyl-methyl)-1-[5-(4-cyclopropyl-pyridin-2-yl)-pyrimidin-2-yl]-N-methyl-spiro[1,2-dihydro-indole-3,1′-cyclopropane]-6-carboxylic acid amide], the IC50 is below 0.1 µM.

With `Cc1cc(N)cc(-c2cnc(N3CC4(CC4)c4ccc(C(=O)N5CCOCC5)cc43)nc2)n1` [Compound 259, [1-[5-(4-Amino-6-methyl-pyridin-2-yl)-pyrimidin-2-yl]-spiro[1,2-dihydro-indole-3,1′-cyclopropane]-6-yl]-morpholin-4-yl-methanone], the IC50 was below 0.1 µM.

For `CC(O)c1cccc(-c2cnc(N3CC4(CC4)c4ccc(C(=O)N(C)CCO)cc43)nc2)c1` (stereo not drawn) [Compound 322, N-(2-Hydroxy-ethyl)-1-[5-[3-(1-hydroxy-ethyl)-phenyl]-pyrimidin-2-yl]-N-methyl-spiro[1,2-dihydro-indole-3,1′-cyclopropane]-6-carboxylic acid amide], the concentration for half-maximal inhibition (IC50) is below 0.1 µM.

The compound `CC(=O)Nc1ccnc(-c2cnc(N3CC4(CC4)c4ccc(C(=O)N5C[C@@H]6C[C@H]5CN6)cc43)nc2)c1` [Compound 338, N-[2-[2-[6-[(1S,4S)-2,5-Diazabicyclo[2.2.1]heptane-2-carbonyl]-spiro[1,2-dihydro-indole-3,1′-cyclopropane]-1-yl]-pyrimidin-5-yl]-pyridin-4-yl]-acetamide] showed an IC50 below 0.1 µM.

The compound `Cc1cccc(-c2cnc(N3CC4(CC4)c4ccc(C(=O)N(C)CCO)cc43)nc2)n1` [Compound 234, N-(4-Hydroxy-ethyl)-N-methyl-1-[5-(6-methyl-pyridin-2-yl)-pyrimidin-2-yl]-spiro[1,2-dihydro-indole-3,1′-cyclopropane]-6-carboxylic acid amide] returned an IC50 below 0.1 µM.

`O=C(c1ccc2c(c1)N(c1ncc(-c3ccccc3F)cn1)CC21CC1)N1CCO[C@@H](CO)C1` [Compound 362, [1-[5-(2-Fluorophenyl)-pyrimidin-2-yl]-spiro[1,2-dihydro-indole-3,1′-cyclopropane]-6-yl]-[(2R)-2-(hydroxymethyl)-morpholin-4-yl]-methanone] showed an IC50 below 0.1 µM.

In the case of `COc1ccnc(-c2cnc(N3CC4(CC4)c4ccc(C(=O)N(C)CCO)cc43)nc2)c1` [Compound 224, N-(2-hydroxyethyl)-1′-(5-(4-methoxypyridin-2-yl)pyrimidin-2-yl)-N-methylspiro[cyclopropane-1,3′-indoline]-6′-carboxamide], the IC50 was below 0.1 µM.

Take `Nc1ccnc(-c2cnc(N3CC4(CC4)c4ccc(C(=O)N5C[C@@H]6C[C@H]5CN6)cc43)nc2)c1` [Compound 301, [1-[5-(4-Amino-pyridin-2-yl)-pyrimidin-2-yl]-spiro[1,2-dihydro-indole-3,1′-cyclopropane]-6-yl]-[(1S,4S)-2,5-diazabicyclo[2.2.1]heptan-2-yl]-methanone]: the IC50 was below 0.1 µM.

`Cc1ccc(F)c(-c2cnc(N3CC4(CC4)c4ccc(C(=O)N(C)CCO)cc43)nc2)c1` [Compound 227, 1-[5-(2-Fluoro-5-methyl-phenyl)-pyrimidin-2-yl]-N-(2-hydroxy-ethyl)-N-methyl-spiro[1,2-dihydro-indole-3,1′-cyclopropane]-6-carboxylic acid amide]: the half-maximal inhibitory concentration (IC50) was below 0.1 µM.

For the compound `C[S+]([O-])c1ccc(F)c(-c2cnc(N3CC4(CC4)c4ccc(C(=O)N5CCOCC5)cc43)nc2)c1` (stereo not drawn) [Compound 355, [1-[5-[2-Fluoro-5-(methylsulfinyl)-phenyl]-pyrimidin-2-yl]-spiro[1,2-dihydro-indole-3,1′-cyclopropane]-6-yl]-morpholin-4-yl-methanone], the IC50 was below 0.1 µM.

The compound `CCc1ccnc(-c2cnc(N3CC4(CC4)c4ccc(C(=O)N5CCNC(=O)C5)cc43)nc2)c1` [Compound 243, 4-[1-[5-(4-Ethyl-pyridin-2-yl)-pyrimidin-2-yl]-spiro[1,2-dihydro-indole-3,1′-cyclopropane]-6-carbonyl]-piperazin-2-one] had a half-maximal inhibitory concentration (IC50) below 0.1 µM.

Compound `N[C@@H]1CCN(C(=O)c2ccc3c(c2)N(c2ncc(-c4cc(C5CC5)ccn4)cn2)CC32CC2)C1` [Compound 335, (R)-(3-aminopyrrolidin-1-yl)(1′-(5-(4-cyclopropylpyridin-2-yl)pyrimidin-2-yl)spiro[cyclopropane-1,3′-indolin]-6′-yl)methanone] showed a concentration for half-maximal inhibition (IC50) below 0.1 µM.

`C[S+]([O-])c1ccnc(-c2cnc(N3CC4(CC4)c4ccc(C(=O)N5CCOCC5)cc43)nc2)c1` (stereo not drawn) [Compound 344, (1′-(5-(4-(methylsulfinyl)pyridin-2-yl)pyrimidin-2-yl)spiro[cyclopropane-1,3′-indolin]-6′-yl)(morpholino)methanone] returned an IC50 below 0.1 µM.

For the compound `Cc1ccnc(-c2cnc(N3CC4(CC4)c4ccc(C(=O)N5CC[C@@H](N)C5)cc43)nc2)c1` [Compound 334, [(3R)-3-Amino-pyrrolidin-1-yl]-[1-[5-(4-methyl-pyridin-2-yl)-pyrimidin-2-yl]-spiro[1,2-dihydro-indole-3,1′-cyclopropane]-6-yl]-methanone], the half-inhibitory concentration (IC50) is below 0.1 µM.

Take `CN(CCO)C(=O)c1ccc2c(c1)N(c1ncc(-c3cc(C(C)(C)O)ccn3)cn1)CC21CC1` [Compound 314, N-(2-Hydroxy-ethyl)-1-[5-[4-(1-hydroxy-1-methyl-ethyl)-pyridin-2-yl]-pyrimidin-2-yl]-N-methyl-spiro[1,2-dihydro-indole-3,1′-cyclopropane]-6-carboxylic acid amide]: the IC50 was below 0.1 µM.

`O=C(c1ccc2c(c1)N(c1ncc(-c3cccnn3)cn1)CC21CC1)N1CC2CC1CN2` (stereo not drawn) [Compound 274, (2,5-Diazabicyclo[2.2.1]heptan-2-yl)-[1-(5-pyridazin-3-yl-pyrimidin-2-yl)-spiro[1,2-dihydro-indole-3,1′-cyclopropane]-6-yl]-methanone hydrochloride] had a 50% inhibitory concentration (IC50) below 0.1 µM.

In turn, `Nc1ccnc(-c2cnc(N3CC4(CC4)c4ccc(C(=O)N5CCNC(=O)C5)cc43)nc2)c1` [Compound 258, 4-[1-[5-(4-Amino-pyridin-2-yl)-pyrimidin-2-yl]-spiro[1,2-dihydro-indole-3,1′-cyclopropane]-6-carbonyl]-piperazin-2-one] came in with an IC50 below 0.1 µM.

On to `C[C@H](O)CN(C)C(=O)c1ccc2c(c1)N(c1ncc(-c3ccccc3F)cn1)CC21CC1` [Compound 284, 1-[5-(2-Fluorophenyl)-pyrimidin-2-yl]-N-[(2S)-2-hydroxy-propyl]-N-methyl-spiro[1,2-dihydro-indole-3,1′-cyclopropane]-6-carboxylic acid amide], for which the half-inhibitory concentration (IC50) was below 0.1 µM.

In the case of `COCCN1CCN(C(=O)c2ccc3c(c2)N(c2ncc(-c4ccccc4F)cn2)CC32CC2)CC1` [Compound 235, [1-[5-(2-Fluorophenyl)-pyrimidin-2-yl]-spiro[1,2-dihydro-indole-3,1′-cylcopropane]-6-yl]-[4-(2-methoxy-ethyl)-piperazin-1-yl]-methanone], the half-maximal inhibitory concentration (IC50) lay within 0.1 to 1 µM.

`CN(CCO)C(=O)c1ccc2c(c1)N(c1ncc(-c3cc(C4(O)CC4)ccc3F)cn1)CC21CC1` [Compound 363, 1-[5-[2-Fluoro-5-(1-hydroxy-cyclopropyl)-phenyl]-pyrimidin-2-yl]-N-(2-hydroxy-ethyl)-N-methyl-spiro[1,2-dihydro-indole-3,1′-cyclopropane]-6-carboxylic acid amide]: the concentration for half-maximal inhibition (IC50) was below 0.1 µM.

The record behind these values is patent US10189854B2, “Substituted pyrimidine compounds” (Grünenthal GmbH, priority 2014, dated 2019).
